This note sets out measurements from patent publication US20070275968A1, “Substituted Biphenyl Derivative” (priority 2004, published 2007).

In the case of `Cc1cccc(-c2[nH]c(C(C)C)nc2-c2cccc(-c3ccc4c(c3)C=CS4(=O)=O)c2)n1` [Example 85, 2-{4-[3-(1,1-Dioxido-1-benzothien-5-yl)phenyl]-2-isopropyl-1H-imidazol-5-yl}-6-methylpyridine], the melting point is 137 to 138 °C.

Take `Cc1cccc(-c2[nH]c(C(C)C)nc2-c2cccc(-c3ccc4c(c3)CCS4(=O)=O)c2)n1` [Example 86, 2-{4-[3-(1,1-Dioxido-2,3-dihydro-1-benzothien-5-yl)phenyl]-2-isopropyl-1H-imidazol-5-yl}-6-methylpyridine]: the melting point was 128 to 131 °C.

In turn, `Cc1cccc(-c2[nH]c(C(C)C)nc2-c2cccc(-c3ccc(NS(=O)(=O)C4CC4)cn3)c2)n1` [Example 87, N-(6-{3-[2-Isopropyl-5-(6-methylpyridin-2-yl)-1H-imidazol-4-yl]phenyl}pyridin-3-yl)cyclopropanesulfonamide] had a melting point of 133 to 136 °C.

`Cc1cccc(-c2[nH]c(C(C)C)nc2-c2cccc(-c3ccc(S(C)(=O)=O)cn3)c2)n1` [Example 88, 2-{3-[2-Isopropyl-5-(6-methylpyridin-2-yl)-1H-imidazol-4-yl]phenyl}-5-(methylsulfonyl)pyridine] registered a melting point of 112 to 114 °C.

`Cc1cccc(-c2[nH]c(C(C)C)nc2-c2cccc(-n3ccnc3)c2)n1` [Example 90, 2-{4-[3-(1H-Imidazol-1-yl)phenyl]-2-isopropyl-1H-imidazol-5-yl}-6-methylpyridine] gave a melting point of 158 to 161 °C.

In turn, `Cc1cccc(-c2[nH]c(C(C)C)nc2-c2ccc(F)c(-c3ccc(NC(=O)NN4CCN(C)CC4)cc3)c2)n1` [Example 92, N-{2′-Fluoro-5′-[2-isopropyl-5-(6-methylpyridin-2-yl)-1H-imidazol-4-yl]-1,1′-biphenyl-4-yl}-N′-(4-methylpiperazin-1-yl)urea] gave a melting point of 145 °C.

Consider `Cc1cccc(-c2[nH]c(C(C)C)nc2-c2ccc(F)c(-c3ccc[nH]3)c2)n1` [Example 93, 2-{4-[4-Fluoro-3-(1H-pyrrol-2-yl)phenyl]-2-isopropyl-1H-imidazol-5-yl}-6-methylpyridine], for which the melting point fell in the range of 103 to 106 °C.

For `Cc1cccc(-c2[nH]c(C(C)C)nc2-c2ccc(F)c(-c3ccc(NC(=O)NC4CCN(C)CC4)cc3)c2)n1` [Example 95, N-{2′-Fluoro-5′-[2-isopropyl-5-(6-methylpyridin-2-yl)-1H-imidazol-4-yl]-1,1′-biphenyl-4-yl}-N′-(1-methylpiperidin-4-yl)urea], the melting point is 145 °C.

As to `Cc1cccc(-c2[nH]c(C(C)C)nc2-c2ccc(F)c(-c3ccc(N4CCOCC4)cc3)c2)n1` [Example 100, 4-{2′-Fluoro-5′-[2-isopropyl-5-(6-methylpyridin-2-yl)-1H-imidazol-4-yl]-1,1′-biphenyl-4-yl}morpholine], the melting point fell in the range of 109 to 111 °C.

Regarding `Cc1cccc(-c2[nH]c(C(C)C)nc2-c2ccc(F)c(-c3ccc(C(=O)O)cc3)c2)n1` [Example 101, 2′-Fluoro-5′-[2-isopropyl-5-(6-methylpyridin-2-yl)-1H-imidazol-4-yl]-1,1′-biphenyl-4-carboxylic acid], the melting point fell in the range of 160 to 161 °C.

As to `Cc1cccc(-c2[nH]c(C(C)C)nc2-c2ccc(F)c(-c3c[nH]nn3)c2)n1` [Example 106, 2-{4-[4-Fluoro-3-(1H-1,2,3-triazol-4-yl)phenyl]-2-isopropyl-1H-imidazol-5-yl}-6-methylpyridine], the melting point lay within 233 to 235 °C.

`CCn1cc(-c2cc(-c3[nH]c(C(C)C)nc3-c3cccc(C)n3)ccc2F)cn1` [Example 107, 2-{5-[3-(1-Ethyl-1H-pyrazol-4-yl)-4-fluorophenyl]-2-isopropyl-1H-imidazol-4-yl}-6-methylpyridine] returned a melting point of 76 to 78 °C.

As to `Cc1cccc(-c2nc(C(C)C)[nH]c2-c2ccc(F)c(-c3cnn(C(C)C)c3)c2)n1` [Example 108, 2-{5-[4-Fluoro-3-(1-isopropyl-1H-pyrazol-4-yl)phenyl]-2-isopropyl-1H-imidazol-4-yl}-6-methylpyridine], the melting point was in the range of 84 to 85 °C.

In the case of `Cc1cccc(-c2nc(C(C)C)[nH]c2-c2ccc(F)c(-c3ccc(NS(=O)(=O)C4CC4)cc3)c2)n1` [Example 111, N-{2′-Fluoro-5′-[2-isopropyl-4-(6-methylpyridin-2-yl)-1H-imidazol-5-yl]-1,1′-biphenyl-4-yl}cyclopropanesulfonamide], the melting point is 119 to 129 °C.

In turn, `Cc1cccc(-c2nc(C(C)C)[nH]c2-c2ccc(F)c(-c3ccco3)c2)n1` [Example 113, 2-{5-[4-Fluoro-3-(2-furyl)phenyl]-2-isopropyl-1H-imidazol-4-yl}-6-methylpyridine] showed a melting point of 78 to 90 °C.

As for `Cc1cccc(-c2[nH]c(C(C)C)nc2-c2ccc(F)c(-c3ccc(O)cc3)c2)n1` [Example 114, 2′-Fluoro-5′-[2-isopropyl-5-(6-methylpyridin-2-yl)-1H-imidazol-4-yl]-1,1′-biphenyl-4-ol], the melting point was in the range of 143 to 145 °C.

With `Cc1cccc(-c2[nH]c(C(C)C)nc2-c2ccc(F)c(-c3cc[nH]c3)c2)n1` [Example 123, 2-{4-[4-Fluoro-3-(1H-pyrrol-3-yl)phenyl]-2-isopropyl-1H-imidazol-5-yl}-6-methylpyridine], the melting point was in the range of 106 to 110 °C.

The molecule `Cc1cccc(-c2[nH]c(C(C)C)nc2-c2ccc(F)c(-c3ccc(S(C)(=O)=O)cn3)c2)n1` [Example 124, 2-{2-Fluoro-5-[2-isopropyl-5-(6-methylpyridin-2-yl)-1H-imidazol-4-yl]phenyl}-5-(methylsulfonyl)pyridine] had a melting point of 105 to 108 °C.

`Cc1cccc(-c2[nH]c(C(C)C)nc2-c2ccc(F)c(-c3ccc([S+](C)[O-])nc3)c2)n1` (stereo not drawn) [Example 128, 5-{2-Fluoro-5-[2-isopropyl-5-(6-methylpyridin-2-yl)-1H-imidazol-4-yl]phenyl}-2-(methylsulfinyl)pyridine]: the melting point lay within 100 to 102 °C.

Molecule `Cc1cccc(-c2[nH]c(C(C)C)nc2-c2ccc(F)c(-c3ccc(S(C)(=O)=O)nc3)c2)n1` [Example 129, 5-{2-Fluoro-5-[2-isopropyl-5-(6-methylpyridin-2-yl)-1H-imidazol-4-yl]phenyl}-2-(methylsulfonyl)pyridine] came in with a melting point of 102 to 105 °C.

Molecule `Cc1cccc(-c2[nH]c(C(C)C)nc2-c2ccc(F)c(-c3nc[nH]n3)c2)n1` [Example 133, 2-{4-[4-Fluoro-3-(1H-1,2,4-triazol-3-yl)phenyl]-2-isopropyl-1H-imidazol-5-yl}-6-methylpyridine] registered a melting point of 184 to 186 °C.

`Cc1cccc(-c2[nH]c(C(C)C)nc2-c2ccc(F)c(-c3ncc[nH]3)c2)n1` [Example 134, 2-{4-[4-Fluoro-3-(1H-imidazol-2-yl)phenyl]-2-isopropyl-1H-imidazol-5-yl}-6-methylpyridine] returned a melting point of 201 to 205 °C.

With `Cc1cccc(-c2[nH]c(C(C)C)nc2-c2ccc(F)c(-c3cc[nH]n3)c2)n1` [Example 135, 2-{4-[4-Fluoro-3-(1H-pyrazol-3-yl)phenyl]-2-isopropyl-1H-imidazol-5-yl}-6-methylpyridine], the melting point fell in the range of 195 to 198 °C.

Regarding `Cc1cccc(-c2[nH]c(C(C)C)nc2-c2ccc(F)c(-c3c[nH]c(=O)[nH]3)c2)n1` [Example 140, 4-{2-Fluoro-5-[2-isopropyl-5-(6-methylpyridin-2-yl)-1H-imidazol-4-yl]phenyl}-1,3-dihydro-2H-imidazol-2-one], the melting point is 177 to 180 °C.

For the molecule `Cc1cccc(-c2[nH]c(C(C)C)nc2-c2ccc(F)c(-c3c[nH]c(C)n3)c2)n1` [Example 141, 2-{4-[4-Fluoro-3-(2-methyl-1H-imidazol-4-yl)phenyl]-2-isopropyl-1H-imidazol-5-yl}-6-methylpyridine], the melting point fell in the range of 230 to 234 °C.

As to `CCc1nc(-c2cc(-c3nc(C(C)C)[nH]c3-c3cccc(C)n3)ccc2F)c[nH]1` [Example 142, 2-{4-[3-(2-Ethyl-1H-imidazol-4-yl)-4-fluorophenyl]-2-isopropyl-1H-imidazol-5-yl}-6-methylpyridine], the melting point lay within 170 to 175 °C.

In the case of `Cc1cccc(-c2n[nH]cc2-c2ccc(F)c(-c3ccc(S(N)(=O)=O)s3)c2)n1` [Example 143, 5-{2-Fluoro-5-[3-(6-methylpyridin-2-yl)-1H-pyrazol-4-yl]phenyl}thiophene-2-sulfonamide], the melting point was found to be 125 °C.

`Cc1cccc(-c2n[nH]cc2-c2ccc(F)c(-c3ccc(S(N)(=O)=O)c(F)c3)c2)n1` [Example 147, 2′,3-Difluoro-5′-[3-(6-methylpyridin-2-yl)-1H-pyrazol-4-yl]-1,1′-biphenyl-4-sulfonamide] gave a melting point of 119 to 121 °C.

With `Cc1cccc(-c2n[nH]cc2-c2ccc(F)c(-c3ccc(O)c(S(N)(=O)=O)c3)c2)n1` [Example 148, 2′-Fluoro-4-hydroxy-5′-[3-(6-methylpyridin-2-yl)-1H-pyrazol-4-yl]-1,1′-biphenyl-3-sulfonamide], the melting point was 104 to 109 °C.

In turn, `Cc1cccc(-c2n[nH]cc2-c2ccc(F)c(-c3cc(F)c(S(N)(=O)=O)cc3F)c2)n1` [Example 149, 2,2′,5-Trifluoro-5′-[3-(6-methylpyridin-2-yl)-1H-pyrazol-4-yl]-1,1′-biphenyl-4-sulfonamide] came in with a melting point of 122 to 125 °C.

In turn, `Cc1cccc(-c2n[nH]cc2-c2ccc(F)c(-c3ccc(S(N)(=O)=O)c(C(F)(F)F)c3)c2)n1` [Example 152, 2′-Fluoro-5′-[3-(6-methylpyridin-2-yl)-1H-pyrazol-4-yl]-3-(trifluoromethyl)-1,1′-biphenyl-4-sulfonamide] gave a melting point of 107 to 110 °C.

With `Cc1cccc(-c2n[nH]cc2-c2ccc(F)c(-c3ccc(C(C)(O)CF)cn3)c2)n1` (stereo not drawn) [Example 163, 1-Fluoro-2-(6-{2-fluoro-5-[3-(6-methylpyridin-2-yl)-1H-pyrazol-4-yl]phenyl}pyridin-3-yl)propan-2-ol], the melting point fell in the range of 174 to 176 °C.

Molecule `Cc1cccc(-c2n[nH]cc2-c2ccc(F)c(-c3ccc(C(C)(O)C(F)(F)F)cn3)c2)n1` (stereo not drawn) [Example 164, 1,1,1-Trifluoro-2-(6-{2-fluoro-5-[3-(6-methylpyridin-2-yl)-1H-pyrazol-4-yl]phenyl}pyridin-3-yl)propan-2-ol] gave a melting point of 197 to 198 °C.

In general, melting point refers to the temperature of the solid-liquid transition.
